Measured values: US5279956A, “Activated protein C polypeptides and anti-peptide antibodies, diagnostic methods and systems for inhibiting activated protein C” (The Scripps Research Institute, priority 1991, dated 1994)
Read-outs that look alike come from different tables or passages of the source. No end group written: not given here.

Molecular target: T1, APC (Homo sapiens, UniProt P04070)
T1 construct: begins at amino acid residue position 158 and ends at 419; The light chain is 155 amino acid residues in length; tissue Factor IX concentrate from Immuno AG, Vienna; thrombin from Enzyme Research Laboratories
Assay: APC anticoagulant activity, APTT and Xa-1-stage coagulation assays (mean or both)
Type: biochemical
Details: for IC50: final peptide concentration at which 50% inhibition of APC activity was observed; for inhibition at 500 µM: 500 μM peptide, mean of APTT and Xa-1-stage assays, 0 = no observable effect ± 10%
Description: The effect of the synthetic peptides on APC anticoagulant activity were determined using the APTT assay in the presence of either normal citrate anticoagulated plasma (NHP) or protein S depleted plasma (PSDP). The assays were performed essentially as described. See Marlar et al., Blood, 59:1067-1072 […]; Suzuki et al., J. Biol. Chem., 258:163-168 (1983); Gruber et al., Blood, 73:639-642 (1989); Ohlin et al., Biochem., 29:644-651 (1990). NHP was purchased from George King Bio-Medical, Inc. (Overland Park, Kans.). PSDP was prepared from a normal human citrate-anticoagulated plasma pool from ten healthy donors. Protein S was immunodepleted from the NHP by immunoaffinity chromatography of NHP over an anti-protein S antibody column to form PSDP. The anti-protein S antibody column was prepared by coupling 100 mg of a monoclonal, high-affinity, calcium-independent anti-PS antibody, designated S7, to 30 ml of CNBr-activated Sepharose 4B (Pharmacia) as described in Example 2c1).
For the APTT assay, APC was prepared as described in Example 2c2). […] The concentration of the APC used in the assay was initially optimized with respect to the sensitivity of the assay towards APC-induced prolongation of clotting time compared to clotting time without APC.
Once the optimal concentration of APC was determined, peptides from Table 2 were then separately admixed for a final concentration of 500 μM with 10 nM APC in 100 μl of TBS-BSA at pH 7.4 to form peptide-APC admixtures. The resulting admixtures were maintained for seven minutes at 37° C. Separate aliquots of peptides maintained under the same conditions in the absence of APC served as controls for the inhibitory effect of synthetic peptides on APC anticoagulant activity. After the maintenance period, 100 μl of NHP and 100 μl APTT-reagent Thrombosil (Ortho Diagnostics, Raritan, N.J.) were admixed into each peptide admixture and maintained for 200 seconds at 37° C. to form a pre-coagulation admixture. In some experiments, PSDP was used in the place of NHP to determine the effect of Protein S on the assay system. Coagulation was then initiated by the admixture of 100 μl of 30 mM CaCl2 in TBS prewarmed to 37° C. to each of the pre-coagulation admixtures. The time for clot formation was measured by an Electra 700 Automatic Coagulation Timer (Medical Laboratory Automation, Inc., Mount Vernon, N.Y.). Each peptide's effect was determined in duplicate.
The synthetic peptides listed in Table 4 are presented in the same order as listed in Table 2, i.e., are reproduced from Table 2. […] For peptides at a concentration of 500 μM that inhibited at least 50% of APC anticoagulant activity, analysis of dose-response was subsequently conducted. The column in Table 4 labeled "Inhibition of APC" represents the inhibition of APC anticoagulant activity measured with 500 μM peptide.
For testing the inhibition of the synthetic peptides on APC activity described above, Xa-1-stage coagulation assays were also performed as described. See Seegers et al., Thrombosis Res., 13:233-243 (1978); Marlar et al., supra; and Walker et al., J. Biol. Chem. 265:1484-1489 (1990).

[1] = final peptide concentration at which 90% inhibition of APC activity was observed, read-out: IC90

T1 sequence (P04070 212-461): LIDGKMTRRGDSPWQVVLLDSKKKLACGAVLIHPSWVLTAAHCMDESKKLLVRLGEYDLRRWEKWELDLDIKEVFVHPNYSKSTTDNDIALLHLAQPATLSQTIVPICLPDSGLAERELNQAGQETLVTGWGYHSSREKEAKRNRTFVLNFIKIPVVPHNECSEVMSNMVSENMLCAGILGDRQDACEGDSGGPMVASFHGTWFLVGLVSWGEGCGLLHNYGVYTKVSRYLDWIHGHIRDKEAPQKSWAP
T1 sequence (P04070 43-197): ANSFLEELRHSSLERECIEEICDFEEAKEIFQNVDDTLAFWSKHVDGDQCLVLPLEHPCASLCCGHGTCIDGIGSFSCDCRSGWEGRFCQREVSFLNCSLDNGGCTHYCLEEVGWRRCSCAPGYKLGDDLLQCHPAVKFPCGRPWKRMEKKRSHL

| Substance | IC90 [µM] | IC50 [µM] | inhibition at 500 µM [%] | IC90 [1] [µM] |
| --- | --- | --- | --- | --- |
| KRNRTFVLNFIKIPV-NH2 [peptide-(311-325), KRNRTFVLNFIKIPV] | 50 | 20 |  |  |
| SGLLHNYGVYTKVSR-NH2 [peptide-(384-398), -SGLLHNYGVYTKVSR] |  |  | 60 | > 500 |
| YGVYTKVSRYLDWIH-NH2 [peptide-(390-404), YGVYTKVSRYLDWIH] |  | 5 | 100 | 40 |
